Twelve molecules from ChEMBL document CHEMBL2424540, “Synthesis and pharmacological evaluation of novel 1-(piperidin-4-yl)-1H-benzo[d]imidazol-2(3H)-one derivatives as potential antimicrobial agents” (2013) can be followed below.

Format in all cases: functional
The subject of one assay is Escherichia coli. Put plainly: Antibacterial activity against Escherichia coli MTCC 443 at 50 mg/ml after 24 hrs by disk agar diffusion technique. Particulars: MTCC 443, 24 h, read-out: DIZ.
Another assay concerns Pseudomonas aeruginosa. Put plainly: Antibacterial activity against Pseudomonas aeruginosa MTCC 424 at 50 mg/ml after 24 hrs by disk agar diffusion technique. The note with it: MTCC 424, 24 h, read-out: DIZ.
In a further assay the test system is Candida albicans. Put plainly: Antifungal activity against Candida albicans MTCC 227 at 50 mg/ml after 24 hrs by disk agar diffusion technique. The note with it: MTCC 227, 24 h, read-out: DIZ.
The subject of a further assay is Aspergillus clavatus. In words: Antifungal activity against Aspergillus clavatus MTCC 1323 at 50 mg/ml after 24 hrs by disk agar diffusion technique. The note with it: MTCC 1323, 24 h, read-out: DIZ.
Another assay has as its system Staphylococcus aureus. Put plainly: Antibacterial activity against Staphylococcus aureus MTCC 96 at 50 mg/ml after 24 hrs by disk agar diffusion technique. Particulars: MTCC 96, 24 h, read-out: DIZ.
The subject of a further assay is Streptococcus pyogenes. In words: Antibacterial activity against Streptococcus pyogenes MTCC 442 at 50 mg/ml after 24 hrs by disk agar diffusion technique. The note with it: MTCC 442, 24 h, read-out: DIZ.

Each structure is given as a SMILES string.

As to `CCOC(=O)Cn1c(=O)n(C2CCN(C3CCc4cc(OC)c(OC)cc43)CC2)c2ccc(Cl)cc21` (centres undefined), the zone of inhibition at 50000 µg/mL with Escherichia coli amounted to 12 mm; with Pseudomonas aeruginosa it was 11 mm; in the assay with Candida albicans, 15 mm; in the assay on Aspergillus clavatus, 14 mm; in the assay on Staphylococcus aureus, 14 mm; in the assay with Streptococcus pyogenes it was 16 mm.

Turning to `CCOC(=O)n1c(=O)n(C2CCN(C3CCc4cc(OC)c(OC)cc43)CC2)c2ccc(Cl)cc21` (centres undefined), the zone of inhibition at 50000 µg/mL with Escherichia coli is 15 mm; in the assay with Pseudomonas aeruginosa it was 13 mm; in the assay on Candida albicans it was 7 mm; in the assay with Aspergillus clavatus, 21 mm; in the assay with Staphylococcus aureus, 11 mm; in the assay with Streptococcus pyogenes, 14 mm.

In the case of `CCN(CC)C(=O)n1c(=O)n(C2CCN(C3CCc4cc(OC)c(OC)cc43)CC2)c2ccc(Cl)cc21` (centres undefined), the zone of inhibition at 50000 µg/mL stood at 13 mm in the assay on Escherichia coli; 8 mm in the assay on Pseudomonas aeruginosa; 10 mm with Candida albicans; 11 mm with Aspergillus clavatus; 20 mm in the assay on Staphylococcus aureus; 11 mm with Streptococcus pyogenes.

Take `COc1cc2c(cc1OC)C(N1CCC(n3c(=O)n(CCCl)c4cc(Cl)ccc43)CC1)CC2` (centres undefined): the zone of inhibition at 50000 µg/mL in the assay with Escherichia coli stood at 10 mm; with Pseudomonas aeruginosa, 11 mm; with Candida albicans it was 17 mm; in the assay on Aspergillus clavatus it was 13 mm; with Staphylococcus aureus, 18 mm; in the assay with Streptococcus pyogenes, 16 mm.

For `COc1cc2c(cc1OC)C(N1CCC(n3c(=O)n(CCCN(C)C)c4cc(Cl)ccc43)CC1)CC2` (centres undefined), the zone of inhibition at 50000 µg/mL came out at 14 mm in the assay with Escherichia coli; 16 mm in the assay with Pseudomonas aeruginosa; 18 mm in the assay on Candida albicans; 10 mm with Aspergillus clavatus; 13 mm in the assay with Staphylococcus aureus; 18 mm in the assay with Streptococcus pyogenes.

For `COCn1c(=O)n(C2CCN(C3CCc4cc(OC)c(OC)cc43)CC2)c2ccc(Cl)cc21` (centres undefined), the zone of inhibition at 50000 µg/mL is 14 mm with Escherichia coli; 15 mm in the assay on Pseudomonas aeruginosa; 24 mm in the assay on Candida albicans; 15 mm with Aspergillus clavatus; 10 mm with Staphylococcus aureus; 13 mm in the assay on Streptococcus pyogenes.

As for `COc1cc2c(cc1OC)C(N1CCC(n3c(=O)n(Cc4ccccc4)c4cc(Cl)ccc43)CC1)CC2` (centres undefined), the zone of inhibition at 50000 µg/mL in the assay on Escherichia coli came to 11 mm; in the assay with Pseudomonas aeruginosa, 13 mm; in the assay on Candida albicans it was 25 mm; in the assay with Aspergillus clavatus, 17 mm; in the assay with Staphylococcus aureus, 11 mm; in the assay on Streptococcus pyogenes, 10 mm.

As for `COc1cc2c(cc1OC)C(N1CCC(n3c(=O)n(Cc4ccc(Cl)cc4)c4cc(Cl)ccc43)CC1)CC2` (centres undefined), the zone of inhibition at 50000 µg/mL stood at 19 mm in the assay on Escherichia coli; 9 mm with Pseudomonas aeruginosa; 16 mm in the assay on Candida albicans; 19 mm in the assay with Aspergillus clavatus; 17 mm in the assay with Staphylococcus aureus; 9 mm with Streptococcus pyogenes.

On to `COc1cc2c(cc1OC)C(N1CCC(n3c(=O)n(Cc4ccc([N+](=O)[O-])cc4)c4cc(Cl)ccc43)CC1)CC2` (centres undefined), for which the zone of inhibition at 50000 µg/mL came out at 17 mm with Escherichia coli; 10 mm with Pseudomonas aeruginosa; 17 mm with Candida albicans; 22 mm in the assay on Aspergillus clavatus; 13 mm in the assay on Staphylococcus aureus; 11 mm in the assay on Streptococcus pyogenes.

With `CC1(C)S[C@@H]2[C@H](NC(=O)[C@H](N)c3ccccc3)C(=O)N2[C@H]1C(=O)O` [AMPICILLIN], the zone of inhibition at 50000 µg/mL came to 20 mm with Escherichia coli, 20 mm in the assay on Pseudomonas aeruginosa, 18 mm in the assay on Staphylococcus aureus and 19 mm with Streptococcus pyogenes.

On to `O=C(N[C@H](CO)[C@H](O)c1ccc([N+](=O)[O-])cc1)C(Cl)Cl` [CHLORAMPHENICOL], for which the zone of inhibition at 50000 µg/mL in the assay on Escherichia coli turned out to be 23 mm; with Pseudomonas aeruginosa, 21 mm; with Staphylococcus aureus it was 21 mm; in the assay with Streptococcus pyogenes it was 20 mm.

Regarding `OC(Cn1cncn1)(Cn1cncn1)c1ccc(F)cc1F` [FLUCONAZOLE], the zone of inhibition at 50000 µg/mL in the assay with Candida albicans and in the assay on Aspergillus clavatus was 24 mm throughout.
